The record followed here is patent publication EP4714939A1, “SULFONAMIDE COMPOUND, PREPARATION METHOD THEREFOR, AND PHARMACEUTICAL USE THEREOF” (Shenzhen Salubris Pharmaceuticals Co., Ltd., priority 2023, dated 2024).

One data set concerns Lp(a). Kind of data set: In-vitro Lp(a) assembly assay (cell-free, sandwich ELISA). The following applies: inhibition of Lp(a) formation; HepG2 and HEK293 (human Apo(a), 17 Kringle repeats) conditioned media, 37°C, 2 hours; 4-parameter curve. It is filed as biochemical. The protocol: The capability of the compounds in the examples inhibiting the formation of Lp(a) particles in vitro was evaluated through cell-free assembly assay. After incubation at 37°C with 5% CO2 for 96 h, conditioned media (supplemented with 10% FBS, 20 mM HEPES, and 1 × penicillin/streptomycin DMEM) was collected from confluent wild-type HepG2 cells (source of endogenously expressed ApoB) and an HEK293 stable cell line expressing human Apo(a) protein containing 17 Kringle repeats (selected on 1 ug/ml puromycin). In-vitro assembly assay was performed by combining equal parts of HepG2 and HEK293 conditioned media with compounds under test added in a dilution series (final concentration being 0.03-1000 nM). A reaction was incubated at 37°C for 2 hours, and terminated by adding 6-aminocaproic acid (EACA) to a final concentration of 150 mM. Sandwich ELISA was used to detect Lp(a) using an anti-Apo(a) capture antibody (ab242565) and an HRP-conjugated anti-ApoB detection antibody (ab27622). ELISA was performed using TMB staining, and terminated with 1N sulfuric acid, and signals were read at 450 nm on an Envision 2104 plate reader. By setting an assembly reaction without inhibitors to 0% inhibition and an assembly reaction with the minimum amount of HepG2 conditioned medium (50-fold dilution) to 100% inhibition, the % inhibition of Lp(a) formed under each test condition was determined. Table 1 IC90 values of sulfonamide compounds
In general terms: ELISA stands for enzyme-linked immunosorbent assay.

The nature of the next data set: in vivo. The following applies: cynomolgus monkey.
The nature of data set [1]: Pharmacokinetic experiment for monkeys. The following applies: Cynomolgus monkey, 5 mg/kg, p.o.
Source text: (§1) Cynomolgus monkey: male, 3-6 kg, purchased from Guangzhou Huazhen biotechnology Co., Ltd. and Hainan Jingang Biotech Co., Ltd.

Source text for in vivo: as §1

As a reminder, the IC90 is the point of the concentration-response curve where the effect stands at 90%. Read a low IC90 as greater potency. In general, AUC(0-t) refers to the area under the concentration-time curve up to a stated or last time point. Read a low AUC(0-t) as low exposure. In general, half-life refers to the time needed for the level to fall by half in the phase considered. In the data set on Lp(a), `O=C(O)[C@@H](Cc1cccc(CN(Cc2cccc(C[C@H](C(=O)O)[C@H]3CCNC3)c2)S(=O)(=O)c2cccc(C[C@H](C(=O)O)[C@H]3CCNC3)c2)c1)[C@H]1CCNC1` [Compound 1] came in with a 90% effect concentration (IC90) of 49.9 nM. In addition, in “in vivo” (iv, 0.5 mg/kg), the AUC(0-t) turned out to be 41000 ng·h/mL and the half-life is 21 h.
With `O=C(O)[C@@H](Cc1cccc(CN(CCc2ccccc2C[C@H](C(=O)O)[C@H]2CCNC2)S(=O)(=O)c2cccc(C[C@H](C(=O)O)[C@H]3CCNC3)c2)c1)[C@H]1CCNC1` [Compound 3], the concentration for an effect of 90% (IC90) with Lp(a) turned out to be 61 nM. In the data set “in vivo” (iv, 0.5 mg/kg), this molecule gave an exposure AUC(0-t) of 33300 ng·h/mL and a half-life of 31.6 h.
The Cmax is the highest concentration seen after dosing. Turning to `O=C(O)[C@@H](Cc1cccc(S(=O)(=O)N(Cc2ccc(F)c(C[C@H](C(=O)O)[C@H]3CCNC3)c2)Cc2ccc(F)c(C[C@H](C(=O)O)[C@H]3CCNC3)c2)c1)[C@H]1CCNC1` [Compound 9], the IC90 with Lp(a) came out at 45.8 nM. Besides, in the data set “in vivo” (po, 5 mg/kg), the exposure AUC(0-t) worked out at 22100 ng·h/mL and the highest level (Cmax) was 1690 ng/mL. Besides, in data set [1], the F is 7.49%.
As to `O=C(O)[C@@H](Cc1cccc(CN(Cc2ccc(Cl)c(C[C@H](C(=O)O)[C@H]3CCNC3)c2)S(=O)(=O)c2ccc(F)c(C[C@H](C(=O)O)[C@H]3CCNC3)c2)c1)[C@H]1CCNC1` [Compound 39, (S)-3-(5-(N-(3-((S)-2-carboxyl-2-((R)-pyrrolid-3-yl)ethyl)-4-chlorobenzyl)-N-(3-((S)-2-carboxyl-2-((R)-pyrrolid-3-yl)ethyl)benzyl)aminosulfonyl)-2-fluorophenyl)-2-((R)-pyrrolid-3-yl)propanoic acid], the 90% effect level with Lp(a) (IC90) was put at 24.9 nM.
Regarding `O=C(O)C(Cc1cccc(S(=O)(=O)N(Cc2ccc(Cl)c(CC(C(=O)O)C3CCNC3)c2)Cc2ccc(Cl)c(CC(C(=O)O)C3CCNC3)c2)c1)C1CCNC1` [Compound 40, (2S,2'S)-3,3'-(3-((S)-2-carboxyl-2-((R)-pyrrolid-3-yl)ethyl)phenyl)sulfonyl)azadiyl)dimethylenyl)bis(6-chloro-3,1-phenylenyl)bis(2-(R)-pyrrolid-3-yl)propanoic acid)], the IC90 in the data set on Lp(a) was 15.7 nM.
Consider `O=C(O)C(Cc1cccc(S(=O)(=O)N(Cc2ccc(Cl)c(CC(C(=O)O)C3CCNC3)c2)Cc2ccc(Cl)c(CC(C(=O)O)C3CCNC3)c2)c1)C1CCNC1` [Compound 41, (2S,2'S)-3,3'-(3-((S)-2-carboxyl-2-((R)-pyrrolid-3-yl)ethyl)phenyl)sulfonyl)azadiyl)dimethylenyl)bis(6-chloro-3,1-phenylenyl)bis(2-(R)-pyrrolid-3-yl)propanoic acid)], for which, in the data set with Lp(a), the 90% effect concentration (IC90) came to 38.1 nM.
Regarding `O=C(O)C(Cc1cc(S(=O)(=O)N(Cc2ccc(Cl)c(CC(C(=O)O)C3CCNC3)c2)Cc2ccc(Cl)c(CC(C(=O)O)C3CCNC3)c2)ccc1F)C1CCNC1` [Compound 42, (2S,2'S)-3,3'(3-((S)-2-carboxyl-2-(R)-pyrrolid-3-yl)ethyl)-4-fluorophenylsu lfonyl)azadiyl)dimethylenyl)bis(6-chloro-3,1-phenylenyl)bis(2-(R)-pyrrolid-3-yl)propanoic acid)], in the data set on Lp(a), the concentration for an effect of 90% (IC90) came out at 25.1 nM.
